Assay results reported in US11415571B2, “Large scale organoid analysis” (Tempus Labs, Inc., priority 2019, dated 2022).
Counter-ions that a name gives are not always drawn.

Key:
[1] = system: first lung cancer tumor organoid line; assay: high throughput tumor organoid drug screen, per-organoid viability histogram; conditions: 10,000 nM dose; for viability at 10 µM: Homo sapiens, read-out: mean viability for all organoids in the plot, caspase 3/7 readout
Description: (§1) TOs were dissociated as described above and resuspended in a 30:70% mix of GFR Matrigel:growth media at a concentration of 100 cells/μl. The solution was added to 384-well assay plates (Corning) at 20 μl per well for a final concentration of 2,000 cells per well. Assay plates were covered with a Breathe-Easy sealing membrane (Sigma Aldrich) to prevent evaporation. TOs were grown for 72 hours before drug addition. Drugs were prepared in growth media with 2.5 μM Caspase-3/7 Green Apoptosis Assay Reagent (Essen Bioscience). Serial dilutions of each molecule were prepared in 384-well polystyrene plates (Nunc). Diluted drug was added to the assay plate using an Integra Viaflo pipette (Integra) mounted on an Integra Assist Plus Pipetting Robot (Integra). Assay plates were again covered with a Breathe-Easy sealing membrane and TOs were exposed to drugs for another 72 hours before imaging.
(§2) Prior to imaging, TOs were incubated with 4 μM Hoechst 33342 (Fisher Scientific) and 300 nM TO-PRO-3 Iodide (642/661) (Invitrogen) for 1.5-2 hours. Assay plates were imaged using an ImageXpress Micro Confocal (Molecular Devices) at 10× magnification so that ˜100-200 TOs were imaged per well. Images were acquired as 4×15 μm Z-stacks and the 2D projections were analyzed to assess cell viability. Confocal images were analyzed using the MetaXpress software (Molecular Devices) custom module editor feature to design an analysis module that identified TOs by clusters of Hoechst 33342 staining, individual cells by Hoechst 33342 staining, and dead/dying cells by either TO-PRO-3 or Caspase-3/7 staining. The result of this analysis module is a spreadsheet detailing the number of live and dead cells for every individual organoid.
(§3) The percentage of viable cells per organoid was calculated based on the image analysis described above. Organoids with fewer than three cells and larger than the top one percent by size were excluded from analysis. The mean viability for all organoids at a given drug concentration was used in dose-response curves to calculate AUC. AUC was calculated using the computeAUC function using settings for “actual” AUC of the R Package PharmacoGx (v1.17.1). Heatmaps of AUC values were generated using the Pheatmap package (v1.0.12) in R. Scatterplots of AUC values were generated using the ggplot2 package (v3.3.0) in R.
(§4) In this example, data for each therapy is presented as a histogram. […] Viability was determined by the systems and methods disclosed above.
(§5) Each tumor organoid line in these examples was cultured individually in wells of a tissue culture plate, as described above.
In this example, tissue culture wells containing a first lung cancer tumor organoid line were each exposed to one of the therapies listed above.

[2] = system: second lung cancer tumor organoid line; assay: as above; conditions: for viability at 10 µM: Homo sapiens, read-out: mean viability for all organoids in the plot
Description: as §1, §2, §3, §4, §5
In this example, tissue culture wells containing a second lung cancer tumor organoid line were each exposed to one of the therapies listed above.

[3] = system: gastric cancer tumor organoid line; assay: cells; conditions: for organoids of the line that are resistant to the drug / organoids with 0% viability (susceptible to the drug) / organoids with 100% viability (resistant to the drug): caspase 3/7 readout, 10,000 nM dose; for viability at 10 µM: Homo sapiens, read-out: mean viability for all organoids in the plot
Description: as §1, §2, §3, §4, §5
In this example, tissue culture wells containing a gastric cancer tumor organoid line were each exposed to one of the therapies listed above.

[4] = system: first endometrial cancer tumor organoid line; assay: high throughput tumor organoid drug screen, per-organoid viability histogram
Description: as §1, §2, §3, §4, §5
In this example, tissue culture wells containing a first endometrial cancer tumor organoid line were each exposed to one of the therapies listed above.

[5] = system: colon cancer tumor organoid line; assay: as above; assay type: cell-based, human; conditions: caspase 3/7 readout, 10,000 nM dose
Description: as §1, §2, §3, §4, §5
In this example, tissue culture wells containing a colon cancer tumor organoid line were each exposed to one of the therapies listed above.

[6] = system: second endometrial cancer tumor organoid line; assay: as above; conditions: for viability at 10 µM: Homo sapiens, read-out: mean viability for all organoids in the plot; for organoids with 0% viability (susceptible to the drug) / organoids with 100% viability (resistant to the drug) / organoids of the line that are resistant to the drug: caspase 3/7 readout, 10,000 nM dose
Description: as §1, §2, §3, §4, §5
In this example, tissue culture wells containing a second endometrial cancer tumor organoid line were each exposed to one of the therapies listed above.

[7] = system: head and neck cancer tumor organoid line; assay: as above; conditions: for viability at 10 µM: Homo sapiens, read-out: mean viability for all organoids in the plot; for organoids of the line that are resistant to the drug / organoids with 0% viability (susceptible to the drug) / organoids with 100% viability (resistant to the drug): caspase 3/7 readout, 10,000 nM dose
Description: as §1, §2, §3, §4, §5
In this example, tissue culture wells containing a head and neck cancer tumor organoid line were each exposed to one of the therapies listed above.

[8] = system: colorectal cancer tumor organoid line; assay: as above; assay type: cell-based, human; conditions: caspase 3/7 readout, 10,000 nM dose
Description: as §1, §2, §3, §4, §5
In this example, tissue culture wells containing a colorectal cancer tumor organoid line were each exposed to one of the therapies listed above.

[9] = caspase 3/7 readout, 10,000 nM dose
[10] = Homo sapiens, read-out: mean viability for all organoids in the plot

Question: Which results are given for `C[C@@]1(CO)[C@H](O)CC[C@@]2(C)[C@H]1CC[C@H]1C[C@@H]3C[C@@]12CC[C@]3(O)CO` [Aphidicolin]?
Answer: organoids of the line that are resistant to the drug ([1]; caspase 3/7 readout): presence of organoids; viability at 10 µM [2]: ~30%; organoids of the line that are resistant to the drug [2, 9]: presence of a small proportion; organoids with 0% viability (susceptible to the drug) [2, 9]: Approximately 50 organoids; organoids with 100% viability (resistant to the drug) [2, 9]: Approximately 15 organoids

Question: Which results are given for `CC(=O)O/N=C1/C(=C2/C(=O)Nc3cc(Br)ccc32)Nc2ccccc21` [BIO-acetoxime]?
Answer: organoids of the line that are resistant to the drug [3]: general absence; organoids with 0% viability (susceptible to the drug) [3]: Approximately 150 organoids; organoids with 100% viability (resistant to the drug) [3]: Approximately 20 organoids

Question: Which results are given for `CC(C)C[C@H](NC(=O)[C@H](Cc1ccccc1)NC(=O)c1cnccn1)B(O)O` [Bortezomib]?
Answer: viability at 10 µM [3]: ~15%; organoids of the line that are resistant to the drug [3]: general absence; organoids with 0% viability (susceptible to the drug) [3]: Approximately 225 organoids; organoids with 100% viability (resistant to the drug) [3]: Approximately 15 organoids

Question: Which “organoids of the line that are resistant to the drug” value [4, 9] does the source give for `N.N.[Cl][Pt][Cl]` [Cisplatin] here?
Answer: general absence

Question: What about the “organoids with 0% viability (susceptible to the drug)” value (shortened to “organoids with 0% viability”) [4, 9] of the same compound?
Answer: Approximately 60 organoids

Question: And the “organoids with 100% viability (resistant to the drug)” value (“organoids with 100% viability” below) [4, 9]?
Answer: Approximately 5 organoids

Question: What does the source list for `O=c1[nH]cc(F)c(=O)[nH]1` [Fluorouracil]?
Answer: viability at 10 µM [5, 10]: ~25%; organoids of the line that are resistant to the drug [5]: general absence; organoids with 0% viability (susceptible to the drug) [5]: Approximately 70 organoids; organoids with 100% viability (resistant to the drug) [5]: Approximately 10 organoids

Question: `Nc1ccn([C@@H]2O[C@H](CO)[C@@H](O)C2(F)F)c(=O)n1` [Gemcitabine] was tested. Which viability at 10 µM [1] did it give?
Answer: ~35%

Question: What about the “organoids of the line that are resistant to the drug” value ([1]; caspase 3/7 readout) of the same compound?
Answer: presence of a small proportion

Question: And the “organoids with 100% viability” value ([1]; caspase 3/7 readout)?
Answer: Approximately 15 organoids

Question: What about the viability at 10 µM [2] of the same compound?
Answer: ~35%

Question: And the “organoids of the line that are resistant to the drug” value [2, 9]?
Answer: presence of a small proportion

Question: What about the “organoids with 0% viability” value [2, 9] of the same compound?
Answer: Approximately 30 organoids

Question: What about the “organoids with 100% viability” value [2, 9] of the same compound?
Answer: Approximately 10 organoids

Question: `CCS(=O)(=O)Nc1ccc2c(c1)/C(=C(/Nc1ccc(CN3CCCCC3)cc1)c1ccccc1)C(=O)N2` [Hesperadin] was tested. Which viability at 10 µM [6] did it give?
Answer: ~20%

Question: And the “organoids with 0% viability” value [6]?
Answer: Approximately 100 organoids

Question: And the “organoids with 100% viability” value [6]?
Answer: Approximately 5 organoids

Question: What does the source list for `CO[C@@H](C)Cn1c(=O)n(C)c2cnc3ccc(-c4cncc(C(C)(C)O)c4)cc3c21` [LY3023414]?
Answer: viability at 10 µM [7]: ~15%; organoids of the line that are resistant to the drug [7]: general absence; organoids with 0% viability (susceptible to the drug) [7]: Approximately 80 organoids; organoids with 100% viability (resistant to the drug) [7]: Approximately 5 organoids

Question: Which results are given for `NC(=O)c1cccc2cn(-c3ccc([C@@H]4CCCNC4)cc3)nc12` [Niraparib]?
Answer: viability at 10 µM [1]: ~25%; organoids of the line that are resistant to the drug ([1]; caspase 3/7 readout): presence of a small proportion; organoids with 0% viability (susceptible to the drug) ([1]; caspase 3/7 readout): Approximately 80 organoids; organoids with 100% viability (resistant to the drug) ([1]; caspase 3/7 readout): Approximately 20 organoids

Question: What does the source list for `O=C1[O][Pt]2([NH][C@@H]3CCCC[C@H]3[NH]2)[O]C1=O` [Oxaliplatin]?
Answer: mean viability for all organoids in the plot [4, 9]: approximately 40%; organoids of the line that are resistant to the drug [4, 9]: presence of organoids; organoids with 0% viability (susceptible to the drug) [4, 9]: Approximately 20 organoids; organoids with 100% viability (resistant to the drug) [4, 9]: Approximately 18 organoids

Question: What does the source list for `CC(=O)O[C@H]1C(=O)[C@@]2(C)[C@H]([C@H](OC(=O)c3ccccc3)[C@]3(O)C[C@H](OC(=O)[C@H](O)[C@@H](NC(=O)c4ccccc4)c4ccccc4)C(C)=C1C3(C)C)[C@]1(OC(C)=O)CO[C@@H]1C[C@@H]2O` [Paclitaxel]?
Answer: viability at 10 µM [7]: ~40%; organoids of the line that are resistant to the drug [7]: presence of a small proportion; organoids with 0% viability (susceptible to the drug) [7]: Approximately 65 organoids; organoids with 100% viability (resistant to the drug) [7]: Approximately 35 organoids

Question: `CCCCc1nc2cc(/C=C/C(=O)NO)ccc2n1CCN(CC)CC` [Pracinostat] was tested. Which viability at 10 µM [3] did it give?
Answer: ~20%

Question: What about the “organoids of the line that are resistant to the drug” value [3] of the same compound?
Answer: general absence

Question: What about the “organoids with 0% viability” value [3] of the same compound?
Answer: Approximately 120 organoids

Question: And the “organoids with 100% viability” value [3]?
Answer: Approximately 10 organoids

Question: How did the viability at 10 µM [6] turn out when `COc1cccc(OCCCN)c1-c1cc(Nc2cnc(C#N)cn2)n[nH]1` [Prexasertib, Prexasertib HCl] was run?
Answer: ~40%

Question: And the “organoids of the line that are resistant to the drug” value [6]?
Answer: presence of a small proportion

Question: And the “organoids with 0% viability” value [6]?
Answer: Approximately 80 organoids

Question: What about the “organoids with 100% viability” value [6] of the same compound?
Answer: Approximately 35 organoids

Question: For `CCc1c2c(nc3ccc(O)cc13)-c1cc3c(c(=O)n1C2)COC(=O)[C@]3(O)CC` [SN-38], which “mean viability for all organoids in the plot” value ([1]; caspase 3/7 readout) is on record?
Answer: approximately 45%

Question: What about the “organoids of the line that are resistant to the drug” value ([1]; caspase 3/7 readout) of the same compound?
Answer: presence of organoids

Question: What about the “organoids with 0% viability” value ([1]; caspase 3/7 readout) of the same compound?
Answer: Approximately 20 organoids

Question: And the “organoids with 100% viability” value ([1]; caspase 3/7 readout)?
Answer: Approximately 20 organoids

Question: What about the “mean viability for all organoids in the plot” value [2, 9] of the same compound?
Answer: approximately 20%

Question: And the “organoids of the line that are resistant to the drug” value [2, 9]?
Answer: general absence

Question: What about the “organoids with 0% viability” value [2, 9] of the same compound?
Answer: Approximately 100 organoids

Question: What about the “organoids with 100% viability” value [2, 9] of the same compound?
Answer: Approximately 5 organoids

Question: With `O=C(O)/C=C/c1ccc(-c2ccc(O)c(C34CC5CC(CC(C5)C3)C4)c2)cc1` [ST-1926, Adarotene] as the compound, how does the viability at 10 µM [4, 10] read?
Answer: ~30%

Question: And the “organoids of the line that are resistant to the drug” value [4, 9]?
Answer: general absence

Question: What about the “organoids with 0% viability” value [4, 9] of the same compound?
Answer: Approximately 45 organoids

Question: What about the “organoids with 100% viability” value [4, 9] of the same compound?
Answer: Approximately 10 organoids

Question: And the viability at 10 µM [6]?
Answer: ~40%

Question: What about the “organoids of the line that are resistant to the drug” value [6] of the same compound?
Answer: presence of a small proportion

Question: What about the “organoids with 0% viability” value [6] of the same compound?
Answer: Approximately 65 organoids

Question: What about the “organoids with 100% viability” value [6] of the same compound?
Answer: Approximately 40 organoids

Question: How did the viability at 10 µM [8, 10] turn out when `CC(=O)Nc1cccc(-n2c(=O)n(C3CC3)c(=O)c3c(Nc4ccc(I)cc4F)n(C)c(=O)c(C)c32)c1` [Trametinib] was run?
Answer: ~25%

Question: And the “organoids with 0% viability” value [8]?
Answer: Approximately 50 organoids

Question: What about the “organoids with 100% viability” value [8] of the same compound?
Answer: Approximately 10 organoids
